Literature values, collected in patent US20050165041A1, “Combination for the treatment of airway disorders” (Altana Pharma AG, priority 2002, published 2005).

Experiments:
[1] = combination with theophyllin
[2] = test system: HCl-induced lung lesions; conditions: rats
[3] = 8-week double-blind, placebo-controlled crossover study; sole medication

Structure (SMILES)	pharmacokinetic interaction with theophyllin [1]	effect on HCl-induced lung lesions [2]	nocturnal asthma symptoms [3]
Cc1c(OCC(F)(F)F)ccnc1C[S+]([O-])c1nc2ccccc2[nH]1 (stereo not shown) [lansoprazole]	lack of pharmacokinetic interaction	–	–
COc1ccc2[nH]c([S+]([O-])Cc3ncc(C)c(OC)c3C)nc2c1 (stereo not shown) [omeprazole, 5-methoxy-2-[(4-methoxy-3,5-dimethyl-2-pyridinyl)methylsulphinyl]-1H-benzimidazole]	–	beneficial effect	reduction in nocturnal asthma symptoms
COc1ccnc(C[S+]([O-])c2nc3ccc(OC(F)F)cc3[nH]2)c1OC (stereo not shown) [pantoprazole, 5-difluoromethoxy-2-[(3,4-dimethoxy-2-pyridinyl)methylsulphinyl]-1H-benzimidazole]	lack of pharmacokinetic interaction	–	–
